The target of assay [1] is T1, Cloned human M1 receptor (CHRM1) stably expressed in HEK293 cells (Homo sapiens, UniProt P11229).
T1 construct: expressed in transfected cells; host or cells: HEK293
T1 sequence (P11229 1-460): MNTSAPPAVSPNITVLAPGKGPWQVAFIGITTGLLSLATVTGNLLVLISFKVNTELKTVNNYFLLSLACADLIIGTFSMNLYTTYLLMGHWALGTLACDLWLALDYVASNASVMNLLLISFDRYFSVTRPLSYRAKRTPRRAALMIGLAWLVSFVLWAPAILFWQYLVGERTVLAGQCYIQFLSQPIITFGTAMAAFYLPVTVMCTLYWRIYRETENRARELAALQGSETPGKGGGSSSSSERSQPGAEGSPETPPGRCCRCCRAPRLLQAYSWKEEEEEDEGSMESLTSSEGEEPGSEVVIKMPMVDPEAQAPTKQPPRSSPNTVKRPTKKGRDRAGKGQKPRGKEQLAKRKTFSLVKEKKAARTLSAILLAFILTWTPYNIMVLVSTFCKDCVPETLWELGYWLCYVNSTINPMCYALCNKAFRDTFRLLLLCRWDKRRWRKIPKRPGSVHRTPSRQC
As to the kind of experiment: CHRM1 Ca++ Flux Assay (agonist mode, FDSS 7000EX). The format is cell-based. The settings on record: for Emax: HEK293, Percent Activity, read-out: M1 FDSS PA; for EC50: geometric mean if tested more than once. In short, it runs like this:
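Compounds tested as agonists at 11 concentrations in triplicate, with calcium traces captured over 3 minutes. Cells were HEK293 with stable human CHRM1 expression, plated overnight at 25K/well and loaded with calcium dye. Responses normalized to carbachol EC100 and fitted by four-parameter nonlinear regression.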

The target in assay [2] is T2, human cloned CHRM2 receptor (M2_CHO cells) (Homo sapiens, UniProt P08172).
T2 construct: expressed in transfected cells; host or cells: CHO-K1
T2 sequence (P08172 1-466): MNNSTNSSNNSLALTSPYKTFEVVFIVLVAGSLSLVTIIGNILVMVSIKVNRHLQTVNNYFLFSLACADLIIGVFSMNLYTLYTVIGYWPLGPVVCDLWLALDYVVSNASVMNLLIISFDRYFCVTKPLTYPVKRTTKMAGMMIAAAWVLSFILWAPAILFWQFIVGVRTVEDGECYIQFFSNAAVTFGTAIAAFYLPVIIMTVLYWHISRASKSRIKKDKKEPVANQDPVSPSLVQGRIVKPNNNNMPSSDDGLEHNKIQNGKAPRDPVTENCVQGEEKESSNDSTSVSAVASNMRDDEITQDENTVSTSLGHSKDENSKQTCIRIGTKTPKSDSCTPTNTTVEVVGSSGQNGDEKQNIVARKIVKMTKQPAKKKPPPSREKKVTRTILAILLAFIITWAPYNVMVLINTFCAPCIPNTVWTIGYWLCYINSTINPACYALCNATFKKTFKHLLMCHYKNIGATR
In words: CHRM2 Ca++ Flux Assay (agonist mode, FDSS 7000EX). The format is cell-based. The settings on record: for Emax: Percent Activity measured to EC100 of Carbachol, read-out: M2 FDSS PA; for EC50: agonist mode, geometric mean if tested more than once, read-out: M2 FDSS EC50. In short, it runs like this:
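Agonist-mode Ca++ flux in CHO-K1 cells stably expressing human CHRM2, dye-loaded, then held 60 min at room temperature in buffer with 20 μM ATP before compound addition; traces read over 3 minutes. Four-parameter fit of triplicate wells; percent activity relative to Carbachol EC100.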

The term EC50 denotes the concentration at which the effect is half-maximal.

As for `COC(C)(C)COc1ccccc1C1CCN([C@@H]2CCC3(C2)CN(C(=O)C2COC2)C3)CC1` [Example 7HH, (R)-(6-(4-(2-(2-methoxy-2-methylpropoxy)phenyl)piperidin-1-yl)-2-azaspiro[3.4]octan-2-yl)(oxetan-3-yl)methanone], in assay [1], the Emax was 82% and it took 0.159 µM to reach a half-maximal effect (EC50). In assay [2], the Emax came out at 16% and the half-maximal effective concentration (EC50) came out at 0.154 µM.

In the case of `CC(C)Oc1cc(F)ccc1C1CCN([C@@H]2CCC3(C2)CN(C(=O)C2COC2)C3)CC1` [Example 6D, (R)-(6-(4-(4-fluoro-2-isopropoxyphenyl)piperidin-1-yl)-2-azaspiro[3.4]octan-2-yl)(oxetan-3-yl)methanone], in assay [1], the Emax was 18% and the half-maximal effective concentration (EC50) came out at 0.018 µM. The Emax in assay [2] is 0%.

For the compound `COCCOc1ccccc1C1CCN([C@@H]2CCC3(C2)CN(c2ccnnc2)C3)CC1` [Example 5Z, (R)-6-(4-(2-(2-methoxyethoxy)phenyl)piperidin-1-yl)-2-(pyridazin-4-yl)-2-azaspiro[3.4]octane], in assay [1], the Emax came out at 21% and the concentration for a half-maximal effect (EC50) amounted to 0.413 µM. The Emax in assay [2] is 0%.

Turning to `COCCOc1ccccc1C1CCN([C@@H]2CCC3(C2)CN(c2nnco2)C3)CC1` [Example 2C], in assay [1], the Emax came to 79% and the EC50 stood at 0.059 µM. Moreover, in assay [2], the Emax was determined as 0%.

Turning to `O=C(C1COC1)N1CC2(CC[C@@H](N3CCC(c4ccccc4OC4CC4)CC3)C2)C1` [Example 7A, (R)-(6-(4-(2-cyclopropoxyphenyl)piperidin-1-yl)-2-azaspiro[3.4]octan-2-yl)(oxetan-3-yl)methanone], in assay [1], the Emax amounted to 75% and the 50% effective concentration (EC50) was found to be 0.009 µM. Besides, in assay [2], the Emax is 55% and the EC50 stood at 0.142 µM.

Take `c1ccc(C2CCN([C@@H]3CCC4(C3)CN(c3cncnc3)C4)CC2)c(O[C@@H]2CCOC2)c1` [Example 1P, (R)-2-(pyrimidin-5-yl)-6-(4-(2-(((R)-tetrahydrofuran-3-yl)oxy)phenyl)piperidin-1-yl)-2-azaspiro[3.4]octane]: in assay [1], the Emax was found to be 43% and the response was half-maximal at 0.098 µM (EC50). For the same compound, in assay [2], the Emax is 7% and the EC50 amounted to 0.007 µM.

For `FC1(COc2ccccc2C2CCN([C@@H]3CCC4(C3)CN(c3nncs3)C4)CC2)CCOCC1` [Example 1J, (R)-2-(6-(4-(2-((4-fluorotetrahydro-2H-pyran-4-yl)methoxy)phenyl)piperidin-1-yl)-2-azaspiro[3.4]octan-2-yl)-1,3,4-thiadiazole], in assay [1], the Emax came out at 78% and the half-maximal effective concentration (EC50) came to 0.182 µM. In addition, in assay [2], the Emax came to 72% and the EC50 was 0.051 µM.

In the case of `CC(C)(O)COc1ccccc1C1CCN([C@@H]2CCC3(C2)CN(c2ncns2)C3)CC1` [Example 3K, (R)-1-(2-(1-(2-(1,2,4-thiadiazol-5-yl)-2-azaspiro[3.4]octan-6-yl)piperidin-4-yl)phenoxy)-2-methylpropan-2-ol], in assay [1], the Emax came to 57% and a half-maximal effect (EC50) was put at 0.186 µM. Also, in assay [2], the Emax worked out at 0%.

As for `CC(C)COc1ccccc1C1CCN([C@@H]2CCC3(C2)CN(C(=O)C2COC2)C3)CC1` [Example 7F, (R)-(6-(4-(2-isobutoxyphenyl)piperidin-1-yl)-2-azaspiro[3.4]octan-2-yl)(oxetan-3-yl)methanone], the Emax in assay [1] is 75%; in assay [2], 0%. The compound further displayed an EC50 in assay [1] of 0.042 µM.

Consider `FC1(COc2ccccc2C2CCN([C@@H]3CCC4(C3)CN(c3nnco3)C4)CC2)CCOCC1` [Example 2D, (R)-2-(6-(4-(2-((4-fluorotetrahydro-2H-pyran-4-yl)methoxy)phenyl)piperidin-1-yl)-2-azaspiro[3.4]octan-2-yl)-1,3,4-oxadiazole], for which, in assay [1], the Emax worked out at 82% and the midpoint of the response, the EC50, lay at 0.141 µM. In addition, in assay [2], the Emax was 8% and the EC50 is 0.05 µM.

Turning to `c1ccc(C2CCN([C@@H]3CCC4(C3)CN(c3cncnc3)C4)CC2)c(OCC2CCOCC2)c1` [Example 1M, (R)-2-(pyrimidin-5-yl)-6-(4-(2-((tetrahydro-2H-pyran-4-yl)methoxy)phenyl)piperidin-1-yl)-2-azaspiro[3.4]octane], the Emax in assay [1] came out at 11%; in assay [2] it was 30%. Moreover, the 50% effective concentration (EC50) was determined as 1.55 µM in assay [1] and 0.402 µM in assay [2].

For the compound `c1ccc(C2CCOC2)c(C2CCN([C@@H]3CCC4(C3)CN(c3nnco3)C4)CC2)c1` (stereo partly drawn) [Example 2K, 2-((6R)-6-(4-(2-(tetrahydrofuran-3-yl)phenyl)piperidin-1-yl)-2-azaspiro[3.4]octan-2-yl)-1,3,4-oxadiazole], in assay [1], the Emax came out at 97% and the 50% effective concentration (EC50) was found to be 0.133 µM. Also, in assay [2], the Emax turned out to be 29% and the 50% effective concentration (EC50) stood at 0.159 µM.

`c1ccc(C2CCN([C@@H]3CCC4(C3)CN(c3nncs3)C4)CC2)c(OC[C@@H]2COCCO2)c1` [Example 3C, 2-((R)-6-(4-(2-(((S)-1,4-dioxan-2-yl)methoxy)phenyl)piperidin-1-yl)-2-azaspiro[3.4]octan-2-yl)-1,3,4-thiadiazole]: in assay [1], the Emax was determined as 88% and the response was half-maximal at 0.041 µM (EC50). In assay [2], the Emax amounted to 18% and the 50% effective concentration (EC50) is 0.024 µM.

With `c1ccc(C2CCN([C@@H]3CCC4(C3)CN(c3cncnc3)C4)CC2)c(C2CCOCC2)c1` [Example 5BB, (R)-2-(pyrimidin-5-yl)-6-(4-(2-(tetrahydro-2H-pyran-4-yl)phenyl)piperidin-1-yl)-2-azaspiro[3.4]octane], in assay [1], the Emax was determined as 72% and the 50% effective concentration (EC50) came out at 0.201 µM. In assay [2], the Emax was 13% and the EC50 came to 0.739 µM.

As to `Fc1cncc(N2CC3(CC[C@@H](N4CCC(c5ccccc5C5CCOCC5)CC4)C3)C2)c1` [Example 5AA, (R)-2-(5-fluoropyridin-3-yl)-6-(4-(2-(tetrahydro-2H-pyran-4-yl)phenyl)piperidin-1-yl)-2-azaspiro[3.4]octane], in assay [1], the Emax came out at 61% and the 50% effective concentration (EC50) worked out at 0.102 µM. For the same compound, in assay [2], the Emax was determined as 28% and the 50% effective concentration (EC50) was determined as 1.77 µM.

For `c1ccc(C2CCN([C@@H]3CCC4(C3)CN(c3nnco3)C4)CC2)c(-c2ncco2)c1` [Example 2M, (R)-2-(6-(4-(2-(oxazol-2-yl)phenyl)piperidin-1-yl)-2-azaspiro[3.4]octan-2-yl)-1,3,4-oxadiazole], in assay [1], the Emax is 99% and the EC50 is 0.093 µM. In assay [2], the Emax amounted to 18% and the half-maximal effective concentration (EC50) was 0.343 µM.

Take `CC(C)(F)COc1ccccc1C1CCN([C@@H]2CCC3(C2)CN(C(=O)C2COC2)C3)CC1` [Example 7B, (R)-(6-(4-(2-(2-fluoro-2-methylpropoxy)phenyl)piperidin-1-yl)-2-azaspiro[3.4]octan-2-yl)(oxetan-3-yl)methanone]: in assay [1], the Emax came to 78% and the EC50 stood at 0.015 µM. Moreover, in assay [2], the Emax is 77% and the EC50 is 0.651 µM.

For `O=C(C1COC1)N1CC2(CC[C@@H](N3CCC(c4ccccc4OCC(F)F)CC3)C2)C1` [Example 7JJ, (R)-(6-(4-(2-(2,2-difluoroethoxy)phenyl)piperidin-1-yl)-2-azaspiro[3.4]octan-2-yl)(oxetan-3-yl)methanone], in assay [1], the Emax was determined as 87% and the concentration for a half-maximal effect (EC50) turned out to be 0.012 µM. For the same compound, in assay [2], the Emax came to 22% and the concentration giving a half-maximal response (EC50) came out at 0.098 µM.

In the case of `CCOc1ccccc1C1CCN([C@@H]2CCC3(C2)CN(C(=O)C2COC2)C3)CC1` [Example 7J, (R)-(6-(4-(2-ethoxyphenyl)piperidin-1-yl)-2-azaspiro[3.4]octan-2-yl)(oxetan-3-yl)methanone], in assay [2], the Emax is 33% and the concentration giving a half-maximal response (EC50) came out at 0.207 µM.

`COc1ccc(F)cc1C1CCN([C@@H]2CCC3(C2)CN(C(=O)C2COC2)C3)CC1` [Example 6A, (R)-(6-(4-(5-fluoro-2-methoxyphenyl)piperidin-1-yl)-2-azaspiro[3.4]octan-2-yl)(oxetan-3-yl)methanone]: in assay [2], the Emax is 10% and the concentration giving a half-maximal response (EC50) was determined as 0.032 µM.
